Assay results from ChEMBL document CHEMBL1201862, “PubChem BioAssay data set” (2004).
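Step 1: Grow cells in 96-well plates. Step 2: Expose to compound for 48 hours at 5 concentrations. Step 3: Interpolate endpoints linearly; if unreached, use highest concentration. GI50 marks 50% less growth.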 Activity calls are given as the source filed them. Rule as the data show it: active = GI50 up to about 1.1 µM and inactive = higher.

Columns and labels:
Experiment in all cases: DTP human tumour cell line panel, 48 h
ACHN = system: ACHN
CAKI-1 = system: CAKI-1
HCT-15 = system: HCT-15
K562 = system: K562
KM12 = system: KM12
LXFL 529 = system: LXFL 529
NCI-H226 = system: NCI-H226
NCI-H460 = system: NCI-H460
NCI-H522 = system: NCI-H522
OVCAR-5 = system: OVCAR-5
SF-268 = system: SF-268
SK-MEL-2 = system: SK-MEL-2
SK-OV-3 = system: SK-OV-3
SW-620 = system: SW-620
UACC-257 = system: UACC-257
LOX IMVI = system: LOX IMVI
RXF 393 = system: RXF 393
BT-549 = system: BT-549
Hs-578T = system: Hs-578T
MDA-MB-435 = system: MDA-MB-435

| Compound | GI50 (ACHN) | GI50 (CAKI-1) | GI50 (HCT-15) [µM] | GI50 (K562) | GI50 (KM12) | GI50 (LXFL 529) | GI50 (NCI-H226) | GI50 (NCI-H460) | GI50 (NCI-H522) | GI50 (OVCAR-5) | GI50 (SF-268) | GI50 (SK-MEL-2) | GI50 (SK-OV-3) | GI50 (SW-620) | GI50 (UACC-257) | GI50 (LOX IMVI) | GI50 (RXF 393) | GI50 (BT-549) | GI50 (Hs-578T) | GI50 (MDA-MB-435) |
| --- | --- | --- | --- | --- | --- | --- | --- | --- | --- | --- | --- | --- | --- | --- | --- | --- | --- | --- | --- | --- |
| CC1SC2=NC3=C(c4ccccc4C3=O)C(c3ccc(F)cc3)N2C1=O (stereo not given) | > 100 µM (inactive) | > 100 µM (inactive) | > 100 | > 100 µM (inactive) | > 100 µM (inactive) | 86.3 µM (inactive) | 38.5 µM (inactive) | > 100 µM (inactive) | 26.5 µM (inactive) | > 100 µM (inactive) | > 100 µM (inactive) | > 100 µM (inactive) | > 100 µM (inactive) | > 100 µM (inactive) | > 100 µM (inactive) |  |  |  |  |  |
| O=C1/C(=C/c2ccccc2)CN(C(=O)Oc2ccccc2)C/C1=C\c1ccccc1 | 21.9 µM (inactive) |  | 40.6 | 7.13 µM (inactive) | > 100 µM (inactive) | 50.6 µM (inactive) |  | 52.1 µM (inactive) | 23.2 µM (inactive) | > 100 µM (inactive) | 24.5 µM (inactive) | 15.6 µM (inactive) |  | 20.2 µM (inactive) | > 100 µM (inactive) | 5.01 µM (inactive) | 11.1 µM (inactive) |  |  |  |
| CCOC(=O)C1=C(C)N(Cc2ccccc2)C(=O)C1CC#N (stereo not given) | > 100 µM (inactive) | > 100 µM (inactive) | > 100 | 70.3 µM (inactive) | > 100 µM (inactive) | 43.4 µM (inactive) |  | > 100 µM (inactive) |  |  |  | > 100 µM (inactive) | > 100 µM (inactive) | 34 µM (inactive) | > 100 µM (inactive) |  | 56 µM (inactive) |  |  |  |
| Nc1ccc(C(=O)N/C(=C\c2ccc3c(c2)OCO3)c2nc3c(O)nc(S)nc3[nH]2)cc1 | > 100 µM (inactive) | > 100 µM (inactive) | > 100 | > 100 µM (inactive) | > 100 µM (inactive) | > 100 µM (inactive) |  |  | > 100 µM (inactive) | > 100 µM (inactive) | > 100 µM (inactive) | > 100 µM (inactive) | > 100 µM (inactive) | > 100 µM (inactive) |  |  | 33.8 µM (inactive) |  |  |  |
| CCOC(=O)C1C(=O)CC(O)(c2ccccc2)C(C(=O)OCC)C1c1ccc(N(C)C)cc1 (stereo not given) | 50.4 µM (inactive) | 51.2 µM (inactive) | 34.7 | 6.21 µM (inactive) | 20.3 µM (inactive) |  | 51.4 µM (inactive) | 20 µM (inactive) | 9.71 µM (inactive) | 74.3 µM (inactive) | 24.9 µM (inactive) | 33 µM (inactive) | 18.2 µM (inactive) | 19.8 µM (inactive) | 63.8 µM (inactive) | 27.5 µM (inactive) | 14.7 µM (inactive) | 28.6 µM (inactive) | 2.1 µM (inactive) | 5.04 µM (inactive) |
| CC(C)(C)N/N=C(/Cc1nc2c3c(ccc2nc1O)C(=O)c1ccccc1C3=O)C(=O)NC1=C(Cl)C(=O)c2ccccc2C1=O | 5.37 µM (inactive) | 1.06 µM (active) | 4.26 | 85.3 µM (inactive) | 2.7 µM (inactive) |  | 10.7 µM (inactive) | 5.42 µM (inactive) | 16.9 µM (inactive) | > 100 µM (inactive) | 6.97 µM (inactive) | 12.4 µM (inactive) | 7.16 µM (inactive) | 39.3 µM (inactive) | 57.9 µM (inactive) | 6.17 µM (inactive) | 6.18 µM (inactive) | 70.5 µM (inactive) | 24.7 µM (inactive) | 33 µM (inactive) |
| CC12C(=O)N(CCN)C(=O)C1C1c3ccccc3C2c2ccccc21 (stereo not given) | > 100 µM (inactive) | > 100 µM (inactive) | > 100 | > 100 µM (inactive) | > 100 µM (inactive) | > 100 µM (inactive) | > 100 µM (inactive) | > 100 µM (inactive) | > 100 µM (inactive) | > 100 µM (inactive) | > 100 µM (inactive) | > 100 µM (inactive) | > 100 µM (inactive) | > 100 µM (inactive) | > 100 µM (inactive) |  |  |  |  |  |
| O=c1[nH]c(NCc2cccnc2)nc2[nH]cnc12 | > 100 µM (inactive) | > 100 µM (inactive) | > 100 | > 100 µM (inactive) | > 100 µM (inactive) |  | > 100 µM (inactive) | > 100 µM (inactive) | 41.4 µM (inactive) | > 100 µM (inactive) | > 100 µM (inactive) | > 100 µM (inactive) | > 100 µM (inactive) | > 100 µM (inactive) | > 100 µM (inactive) | > 100 µM (inactive) | > 100 µM (inactive) | > 100 µM (inactive) | > 100 µM (inactive) | > 100 µM (inactive) |
| O=C1c2ccccc2C2CNC1(O)c1ccccc12 (stereo not given) | > 100 µM (inactive) | > 100 µM (inactive) | > 100 | > 100 µM (inactive) | > 100 µM (inactive) |  | 35.1 µM (inactive) | > 100 µM (inactive) | > 100 µM (inactive) | > 100 µM (inactive) | > 100 µM (inactive) | > 100 µM (inactive) | > 100 µM (inactive) | > 100 µM (inactive) | > 100 µM (inactive) | > 100 µM (inactive) | > 100 µM (inactive) | > 100 µM (inactive) | > 100 µM (inactive) | > 100 µM (inactive) |
